Reference: patent US20070048329A1, “Epstein barr virus peptide epitopes, polyepitopes and delivery system therefor” (priority 2002, published 2007)
Entries after “also recorded” stand apart in the source; their conditions may differ.

What was measured:
HLA A2 = HLA A2 (Homo sapiens, UniProt P04439, D140Y/D185E/D98H/E176V/E277Q/G131W/G231S/I119V/I121R/I166T/I218V/L300P/L318F/N151K/N90K/P208A/P217A/Q86G/Q94H/R138H/R169H/T345S); experiment: MHC stabilisation assay on T2 cells; assay type: cell-based; set-up: endogenous in cells; host or cells: T2 (.174×CEM.T2), TAP-negative B×T hybrid cell line; conditions: 14-16 h at 26° C. then 2-3 h at 37° C., FACS
Protocol: FIG. 7: A: CTL recognition of variant and prototypic BLA A2-restricted LMP1 epitope […]. PHA blasts were sensitized with serial dilutions of each of the peptides and then exposed to either the […]-specific CTL clone, SB7. B: MHC stabilization analysis on T2 cells using variant and prototypic HLA A2-restricted LMP1 epitope. T2 cells were initially incubated with 200 μl of each of the peptides (10 μg/ml) for 14-16 h at 26° C. followed by incubation at 37° C. for 2-3 h. HLA A2 expression on these cells was analysed by FACS using HLA A2-specific monoclonal antibody.
To assess MHC binding by the HLA A2-restricted LMP1 epitope variants from EBV isolates, T2 cells (2×10^5) were incubated with 200 μl of each of the peptides (100 μg/ml) at 26° C. for 14-16 h, followed by incubation at 37° C. for 2-3 h. After the incubations, HLA A2 expression was measured by FACS using a specific monoclonal antibody (HB82, ATCC).

[1] = system: peptide-sensitised PHA blasts and LCLs; experiment: 51Cr-release cytotoxicity assay with peptide-specific CTL lines and clones; assay type: cell-based, human; conditions: serial dilutions of peptide, compared with wild-type YLLEMLWRL, CTL clone SB7
Protocol: Polyclonal CTL lines and LMP1-specific CTL clones were established according to previously published methods (Moss 1988; Khanna 1998). Briefly, 2×10^6 PBMCs were stimulated with 1×10^6 autologous lymphocytes (responder to stimulator ratio of 2:1) pulsed with 10 μM peptide for 1 hr in 2 ml in a 24-well plate. After 3 days, culture medium with IL-2 (10 U/ml) was added and the cells were further expanded. These lymphocytes were restimulated on day 7 with γ-irradiated (8000 rad) autologous LCLs. After 10 days in culture medium, the cells were used as polyclonal effectors in a standard ^51Cr-release assay against peptide-sensitised autologous PHA blasts.
To generate peripheral blood CTL clones specific for the LMP1 derived peptides, PBMCs of healthy donors were reactivated (2×10^6) PBMCs with peptide-sensitised (10 ug of peptide/ml) autologous lymphocytes (1×10^6) in 2 ml wells of a 24-well plate in culture medium. After 3 days, the cells were seeded onto 0.35% agarose and maintained in T cell growth medium containing rIL2 (50 IU/ml). After another 3 days, growing clones were transferred to 96-well round-bottom tissue culture plates (Life Technologies) and cultured in T cell growth medium containing rIL2 (50-100 IU/ml).
Target cells were pre-sensitized with synthetic peptide epitopes and then incubated with ^51Cr for 90 min. Following incubation, these cells were washed in growth medium and used as targets in a standard 5 h ^51Cr-release assay (Moss, 1988)
To further characterize the minimal T cell epitopes defined by ELISPOT assays we generated polyclonal and clonal CTL lines specific for these epitopes. PBMCs from the healthy seropositive donors were stimulated with synthetic peptide epitopes and the CTL clones or polyclonal lines were established and tested in standard ^51Cr-release assays. The […] peptide-specific CTL clones were generated using initial stimulation with peptide-sensitized autologous PBMC followed by continuous restimulation with irradiated autologous LCL. These CTL clones were screened for […]-specific CTL activity by ^51Cr release assays against peptide-sensitised autologous and allogeneic PHA blast and LCLs. […] Titration of this minimal epitope on autologous PHA blasts further confirmed the fine specificity of this CTL clone (FIG. 5B).

CD8+ CTL = experiment: Immunization of HLA A2/K^b transgenic mice, epitope-specific T cell responses; conditions: mouse, in vivo
Description: HLA A2/K^b transgenic mice used in this study have been described elsewhere (Theobald 1997). These mice express a chimeric class I molecule composed of the alpha 1 & 2 domains of the human A*0201 allele and the alpha 3 domains of the mouse H-2K^b class I molecules. These mice were vaccinated intraperitoneally with 10^8 plaque forming units of recombinant Ad5-LMPpoly or a control adenovirus. After 3 weeks, splenocytes were harvested and tested for epitope-specific T cell responses. These T cell responses were assessed using ELISPOT and in vivo CTL assays as herein described.

| Molecule | HLA A2 expression on T2 cells (HLA A2 binding) (HLA A2) | sensitizing autologous PHA blast to lysis by YLLEMLWRL-specific CTL clone [1] | CD8+ CTL responses in polyepitope-immunized mice (CD8+ CTL) |
| --- | --- | --- | --- |
| YFLEILWRL [variant of […] dominant in South-East Asian EBV isolates] | unable to rescue HLA A2 expression; also recorded: significant loss in HLA A2 binding | poorly recognized | – |
| YLLEILWRL | significantly increased MHC expression on T2 cells | recognized as efficiently as the wild-type epitope | – |
| SEQ ID NO:81: polyepitope protein of thirteen contiguous LMP1 and LMP2 CTL epitopes (protein) MPYLFWLAAISSCSSCPLSKITYGPVFMCLRRRWRRLTVLLSAWILTALTAGFLIFLCLGGLLTMVVMSNTLLSAWIEDPPFNSLYLLEMLWRLYLQQNWWTLALLVLYSFALIALYLQQNW | – | – | induce CD8+CTL responses |
